The term EC50 denotes the midpoint of the concentration-response curve. As usually defined, the Emax is the greatest response seen or fitted, relative to the assay's reference.

Where two headings read alike, the source gives them in different places.

What all share (type): cell-based, human
Assay [1] has as its system MDA-MB-453. The experiment in a line: Compounds cellular killing in MDA-MB-453. The conditions noted are these: for EC50 / Emax: Homo sapiens; for killing activity compared with 1-B: MDA-MB-453, FIG. 1. The procedure:
Seeding cells MDA-MB-453 (2E3/well) into 96-well plate (Greiner: 655090), 100 ul/well. Incubation at 37° C., 5% CO2, overnight.
Adding the fresh growth-medium containing the varying concentrations of compounds, 50 ul/well.
Incubation at 37° C., 5% CO2, 6 days.
The cell viability detected by Cell Titer-Glo (Promega, G7573). Add 70 µL/well of CellTiter-Glo® Reagent in each well.
Allow the plates to incubate at room temperature for 10 minutes to stabilize luminescent signal.
Analyze with Microplate Reader.

Assay [2] deals with A375. The experiment in a line: Compounds cellular killing in A375. The conditions noted are these: Homo sapiens, A375, 6 days, Cell Titer-Glo. The procedure, abridged:
(§1)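 A375 (1E3/well) or Calu-6 (2E3/well) cells were seeded overnight, then exposed to varying compound concentrations for 6 days at 37 °C, 5% CO2. Viability was read by CellTiter-Glo luminescence.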
(In general: Cellular ATP, detected with luciferase, serves as a proxy for viable cell number.)

The subject of assay [3] is Calu-6. The experiment in a line: Compounds cellular killing in Calu-6. The conditions noted are these: Homo sapiens, Calu-6, […], Calu-6, 6 days, Cell Titer-Glo. A digest of the protocol: as §1

With `CC[C@@]1(O)C(=O)OCc2c1cc1n(c2=O)Cc2c-1nc1cc(F)c(C)c3c1c2[C@@H](N(C)C)CC3` [Example 1-5, (1S,9S)-1-(dimethylamino)-9-ethyl-5-fluoro-9-hydroxy-4-methyl-1,2,3,9,12,15-hexahydro-10H,13H-benzo[de]pyrano[3′,4′:6,7]indolizino[1,2-b]quinoline-10,13-dione], in assay [1] (MDA-MB-453, […]), the 50% effective concentration (EC50) stood at 1.3 nM and the Emax was 93.3%. The “killing activity compared with 1-B” value in assay [1] was “comparable killing activity to 1-B”.
With `CC[C@@]1(O)C(=O)OCc2c1cc1n(c2=O)Cc2c-1nc1cc(F)c(C)c3c1c2[C@@H](N1CCNCC1)CC3` [Example 1-6, (1S,9S)-9-ethyl-5-fluoro-9-hydroxy-4-methyl-1-(piperazin-1-yl)-1,2,3,9,12,15-hexahydro-10H,13H-benzo[de]pyrano[3′,4′:6,7]indolizino[1,2-b]quinoline-10,13-dione], in assay [1] (MDA-MB-453, […]), the 50% effective concentration (EC50) was 3.3 nM and the Emax is 93.4%. For the same compound, in assay [1], the “killing activity compared with 1-B” value is “less potent than 1-B”.
In assay [1] (MDA-MB-453, […]), `CC[C@@]1(O)C(=O)OCc2c1cc1n(c2=O)Cc2c-1nc1cc(F)c(C)c3c1c2[C@@H](N1CCN(C)CC1)CC3` [Example 1-7, (1S,9S)-9-ethyl-5-fluoro-9-hydroxy-4-methyl-1-(4-methylpiperazin-1-yl)-1,2,3,9,12,15-hexahydro-10H,13H-benzo[de]pyrano[3′,4′:6,7]indolizino[1,2-b]quinoline-10,13-dione] gave an EC50 of 1.2 nM and an Emax of 96.8%. For the same compound, the “killing activity compared with 1-B” value in assay [1] is “comparable killing activity to 1-B”.
For the compound `CC[C@@]1(O)C(=O)OCc2c1cc1n(c2=O)Cc2c-1nc1cc(F)c(C)c3c1c2[C@@H](N)CC3` [Example 1-B, reference compound], the maximum response (Emax) in assay [2] (A-375) came out at 100%; in assay [1] (MDA-MB-453, 6 days, Cell Titer-Glo, read-out: Emax (%)), 99.4%; in assay [3], 98.4%. In addition, the EC50 in assay [1] (MDA-MB-453, 6 days, Cell Titer-Glo, read-out: EC50) is 0.9 nM.
Regarding `CC[C@@]1(O)C(=O)OCc2c1cc1n(c2=O)Cc2c-1nc1cc(F)c(C)c3c1c2C(CN(C)CCO)CC3` (stereo partly drawn) [Example 2-54, (9S)-9-ethyl-5-fluoro-9-hydroxy-1-(((2-hydroxyethyl)(methyl)amino)methyl)-4-methyl-1,2,3,9,12,15-hexahydro-10H,13H-benzo[de]pyrano[3′,4′:6,7]indolizino[1,2-b]quinoline-10,13-dione], in assay [2] (A-375, […]), the EC50 came out at 0.9 nM and the Emax turned out to be 100%. Moreover, in assay [3], the EC50 turned out to be 0.2 nM and the Emax came out at 98.2%.
As to `CC[C@@]1(O)C(=O)OCc2c1cc1n(c2=O)Cc2c-1nc1cc(F)c(C)c3c1c2C(CNCCCO)CC3` (stereo partly drawn) [Example 2-55, (9S)-9-ethyl-5-fluoro-9-hydroxy-1-(((3-hydroxypropyl)amino)methyl)-4-methyl-1,2,3,9,12,15-hexahydro-10H,13H-benzo[de]pyrano[3′,4′:6,7]indolizino[1,2-b]quinoline-10,13-dione], the EC50 in assay [2] (A-375, […]) turned out to be 7.3 nM; in assay [3], 2.8 nM. For the same compound, the maximum response (Emax) was determined as 99.8% in assay [2] (A-375, […]) and 99.3% in assay [3].
`CC[C@@]1(O)C(=O)OCc2c1cc1n(c2=O)Cc2c-1nc1cc(Cl)c(C)c3c1c2[C@@H](NC(=O)C(C)(F)CO)CC3` (stereo partly drawn) [Example 2-58, N-((1S,9S)-5-chloro-9-ethyl-9-hydroxy-4-methyl-10,13-dioxo-2,3,9,10,13,15-hexahydro-1H,12H-benzo[de]pyrano[3′,4′:6,7]indolizino[1,2-b]quinolin-1-yl)-2-fluoro-3-hydroxy-2-methylpropanamide]: the EC50 in assay [2] (A-375, […]) was 2.9 nM; in assay [3] it was 0.9 nM. The Emax turned out to be 99.9% in assay [2] (A-375, […]) and 98.8% in assay [3].

(Values after patent US20250295798A1, “LIGAND-DRUG CONJUGATE OF EXATECAN ANALOGUE, AND MEDICAL USE THEREOF” (BeiGene Switzerland GmbH, priority 2022, published 2025).)
